From patent publication US10428080B2, “TBK/IKK inhibitor compounds and uses thereof” (Merck Patent GmbH, priority 2015, dated 2019)
Counter-ions that a name gives are not always drawn.

Assays:
TBK1 = molecular target: T1, TBK1 (Homo sapiens, UniProt Q9UHD2); experiment: TBK Biochemical Assay; conditions: read-out: TBK1 IC50
T1 sequence (Q9UHD2 1-729): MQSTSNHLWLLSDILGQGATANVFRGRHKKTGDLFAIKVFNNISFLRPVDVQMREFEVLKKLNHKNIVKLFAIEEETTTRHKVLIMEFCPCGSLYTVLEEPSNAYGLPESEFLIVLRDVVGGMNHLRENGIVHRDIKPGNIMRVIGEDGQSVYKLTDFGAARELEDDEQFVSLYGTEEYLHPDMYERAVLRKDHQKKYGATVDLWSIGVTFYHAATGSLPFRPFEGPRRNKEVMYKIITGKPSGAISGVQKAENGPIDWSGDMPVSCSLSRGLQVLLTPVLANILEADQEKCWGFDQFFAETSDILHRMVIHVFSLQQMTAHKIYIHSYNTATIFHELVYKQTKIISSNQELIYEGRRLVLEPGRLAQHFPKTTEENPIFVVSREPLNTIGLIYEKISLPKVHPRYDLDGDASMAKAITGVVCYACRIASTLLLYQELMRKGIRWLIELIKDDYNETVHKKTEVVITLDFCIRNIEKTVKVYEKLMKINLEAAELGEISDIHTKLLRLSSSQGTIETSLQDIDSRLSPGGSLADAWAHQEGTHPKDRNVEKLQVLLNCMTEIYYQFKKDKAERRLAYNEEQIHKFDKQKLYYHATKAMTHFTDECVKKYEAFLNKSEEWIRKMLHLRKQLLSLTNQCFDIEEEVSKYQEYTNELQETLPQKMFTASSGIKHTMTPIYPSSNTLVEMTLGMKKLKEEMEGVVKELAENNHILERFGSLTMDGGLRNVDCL
Summary of the method: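 TBK1 enzyme and substrate incubated with compounds (10-point 1:4 dilution, top 30 uM final, 1% DMSO) for 90 min at 25° C, then stopped. Substrate/product peaks read by microfluidic mobility-shift (Caliper LabChip); 10 uM staurosporine as full-inhibition control.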

IKKε = molecular target: T2, IKKε (Homo sapiens, UniProt Q14164); experiment: IKKe Biochemical Assay; conditions: read-out: IKKε IC50
T2 sequence (Q14164 1-716): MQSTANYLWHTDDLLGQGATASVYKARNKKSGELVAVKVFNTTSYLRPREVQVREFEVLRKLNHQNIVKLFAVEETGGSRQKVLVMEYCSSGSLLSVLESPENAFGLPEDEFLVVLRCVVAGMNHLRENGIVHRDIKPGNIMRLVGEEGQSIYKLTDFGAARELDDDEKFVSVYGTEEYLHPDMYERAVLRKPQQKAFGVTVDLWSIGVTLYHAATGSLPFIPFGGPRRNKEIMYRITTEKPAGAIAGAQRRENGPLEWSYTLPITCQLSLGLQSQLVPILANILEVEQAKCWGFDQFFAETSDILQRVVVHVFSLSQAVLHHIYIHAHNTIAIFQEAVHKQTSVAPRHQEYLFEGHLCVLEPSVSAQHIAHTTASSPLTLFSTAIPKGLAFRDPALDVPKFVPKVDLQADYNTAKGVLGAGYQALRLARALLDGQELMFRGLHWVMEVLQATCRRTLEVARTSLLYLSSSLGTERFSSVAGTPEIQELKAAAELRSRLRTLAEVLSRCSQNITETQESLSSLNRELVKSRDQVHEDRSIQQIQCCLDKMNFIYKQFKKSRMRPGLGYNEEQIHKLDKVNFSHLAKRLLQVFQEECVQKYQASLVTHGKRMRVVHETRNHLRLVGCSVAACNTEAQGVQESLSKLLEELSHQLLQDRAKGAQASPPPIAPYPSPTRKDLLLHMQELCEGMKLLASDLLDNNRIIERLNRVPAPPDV
Summary of the method: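 Recombinant IKKε and substrate were incubated with compound (10-point 1:4 series, top 30 uM final, 1% DMSO) for 90 min at 25° C, then stopped. Substrate-to-product conversion was read by LabChip microfluidic mobility shift; 10 uM staurosporine served as full-inhibition wells.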

[1] = system: phosphorylation of the IRF-3 protein in MDA-MB-468 cells; experiment: pIRF3 immunocytochemistry cell based assay; conditions: Homo sapiens; MDA-MB-468 cells, Poly(I:C) stimulation; read-out: pIRF3 IC50
Description: The purpose of the pIRF3 immunocytochemistry cell based assay was to identify small molecules which modulates TBK/IKKe kinase activity through on target substrate phosphorylation of the IRF-3 protein. On the first day of the experiment, MDA-MB-468 cells were plated in 384 well, black, clear-bottom, Poly D lysine coated plates at a density of 5000 cells/well in 45 ul of complete DMEM and allowed to adhere overnight. On the second day compounds were added to cells at a starting concentration of 10 uM with a serial dilution of 3-fold for a total of 10 points. The cells were incubated for 1 hr at 37° C. Cells were then stimulated with Poly(I:C) at a final concentration of 10 ug/ml, and were incubated for 2 hr at 37° C. Following the incubation, media was removed from the wells and the cells were fixed with 4% PFA for 15 min at RT. Cells were washed at least 3 times with PBS, and then permeabilized with ice-cold methanol for 10 min at RT. The washing step was repeated and the cells were then blocked using 10% goat serum/1% BSA, made up in PBS and allowed to incubate at RT for 1 hr. The cells were washed again and then treated with an anti-pIRF3 antibody at 4° C. overnight (1:250 dilution of Abcam ab76493 in PBS containing 1% BSA). On the third day the primary antibody was washed off and pIRF3 was detected by adding the secondary antibody conjugated to AlexaFluor488 (1:200 dilution of secondary antibody in PBS containing 1% BSA) for 1 hr at RT. Cells were washed and then counterstained with PI/RNase staining buffer for 15 min at RT and read on the Acumen Explorer laser scanning cytometer. The percentage of phosphorylation of the IRF-3 protein was calculated using the following algorithm, a modified version of the mean half width intensity (pIRF3 staining)/(PI staining or # of cells)×100%). IC50 curves were generated using the Genedata software.

Compound	IC50 (TBK1) [nM]	IC50 (IKKε) [nM]	IC50 [1] [nM]
COc1cc(C(=O)N2CC3CCC2CN3C)ccc1-c1cc2nccc(-c3ccc(OC4CCOCC4)c(C#N)c3)c2o1 (centres unmarked) [Compound 503]	< 100	< 100	< 100
COc1cc(C(=O)N(C)C)ccc1-c1cc2nccc(-c3ccc(C(C)(C)N4CCOCC4)c(C#N)c3)c2o1 [Compound 291, 4-(7-[3-cyano-4-[2-(morpholin-4-yl)propan-2-yl]phenyl]furo[3,2-b]pyridin-2-yl)-3-methoxy-N,N-dimethylbenzamide hydrochloride]	–	–	> 5000
COc1cc(C(=O)N(C)C)ccc1-c1cc2nccc(-c3ccc(OC4CCN(C(=O)OC(C)(C)C)CC4)c(C#N)c3)c2o1 [Compound 182]	> 5000	> 5000	–
COc1cc(C(=O)N(C)C)ccc1-c1cc2nccc(-c3ccc(NC4CCCOC4)c(C#N)c3)c2o1 (centres unmarked) [Compound 164]	100 to 1000	100 to 1000	–
N#Cc1cc(-c2ccnc3cc(-c4ccc(C(=O)O)cc4)oc23)ccc1Oc1ccncc1 [Compound 192, 4-{7-[3-Cyano-4-(pyridin-4-yloxy)-phenyl]-furo[3,2-b]pyridin-2-yl}-benzoic acid]	> 5000	> 5000	–
COc1cc(C(=O)N(C)C)ncc1-c1cc2nccc(-c3cc(C#N)c(OC4CCOCC4)cn3)c2o1 [Compound 386, 5-[7-[4-cyano-5-(oxan-4-yloxy)pyridin-2-yl]furo[3,2-b]pyridin-2-yl]-4-methoxy-N,N-dimethylpyridine-2-carboxamide]	100 to 1000	100 to 1000	–
COc1cc(C(=O)N(C)C)ccc1-c1cc2nccc(-c3ccc(O[C@@H]4CCNC4)c(C#N)c3)c2o1 [Compound 115, 4-{7-[3-Cyano-4-((R)-pyrrolidin-3-yloxy)-phenyl]-furo[3,2-b]pyridin-2-yl}-3-methoxy-N,N-dimethyl-benzamide]	< 100	< 100	–
COc1cc(C(=O)N2C3CCC2COC3)ccc1-c1cc2nccc(-c3ccc(NC4CCOCC4)c(C#N)c3)c2o1 [Compound 94, 5-{2-[2-Methoxy-4-(3-oxa-8-aza-bicyclo[3.2.1]octane-8-carbonyl)-phenyl]-furo[3,2-b]pyridin-7-yl}-2-(tetrahydro-pyran-4-ylamino)-benzonitrile]	< 100	< 100	–
COc1cc(C(=O)N2CCC(OC)CC2)ccc1-c1cc2nccc(-c3ccc(OC4CCOCC4)c(C#N)c3)c2o1 [Compound 12, 5-(2-[2-Methoxy-4-(4-methoxy-piperidine-1-carbonyl)-phenyl]-furo[3,2-b]pyridin-7-yl}-2-(tetrahydro-pyran-4-yloxy)-benzonitrile]	< 100	< 100	–

Results, then the molecule that gave them:

IC50 (TBK1) [nM]	IC50 (IKKε) [nM]	IC50 [1] [nM]	Compound
100 to 1000	–	< 100	COc1cc(C(=O)N(C)C)cnc1-c1cc2ncc(OC)c(-c3ccc(OC4CCOCC4)c(C#N)c3)c2o1 [Compound 339, 6-[7-[3-cyano-4-(oxan-4-yloxy)phenyl]-6-methoxyfuro[3,2-b]pyridin-2-yl]-5-methoxy-N,N-dimethylpyridine-3-carboxamide]
< 100	< 100	–	COc1cc(C(=O)NC2C3COCC32)ncc1-c1cc2nccc(-c3ccc(N4CC[C@@H](F)C4)c(C#N)c3)c2o1 (stereo partly drawn) [Compound 469, 5-(7-[3-cyano-4-[(3R)-3-fluoropyrrolidin-1-yl]phenyl]furo[3,2-b]pyridin-2-yl)-4-methoxy-N-[3-oxabicyclo[3.1.0]hexan-6-yl]pyridine-2-carboxamide]
< 100	< 100	–	COc1cc(C(=O)NC2(C)CCNC2)ccc1-c1cc2nccc(-c3ccc(OC4CCOCC4)c(C#N)c3)c2o1 (centres unmarked) [Compound 86, 4-{7-[3-Cyano-4-(tetrahydro-pyran-4-yloxy)-phenyl]-furo[3,2-b]pyridin-2-yl}-3-methoxy-N-(3-methyl-pyrrolidin-3-yl)-benzamide hydrochloride]
< 100	< 100	–	CCN(CC)C(=O)c1ccc(-c2cc3nccc(-c4ccc(NC5CCOCC5)c(C#N)c4)c3o2)c(OC)c1 [Compound 259, 4-(7-(3-cyano-4-(tetrahydro-2H-pyran-4-ylamino)phenyl)furo[3,2-b]pyridin-2-yl)-N,N-diethyl-3-methoxybenzamide]
100 to 1000	100 to 1000	–	COc1cc(C(=O)N(C)CCO)cnc1-c1cc2ncc(OC)c(-c3ccc(OC4CCOCC4)c(C#N)n3)c2o1 [Compound 362, 6-[7-[6-cyano-5-(oxan-4-yloxy)pyridin-2-yl]-6-methoxyfuro[3,2-b]pyridin-2-yl]-N-(2-hydroxyethyl)-5-methoxy-N-methylpyridine-3-carboxamide]
100 to 1000	100 to 1000	–	CN(C)C(=O)c1ccc(-c2cc3nccc(-c4ccc(OC5CCOCC5)c(C#N)c4)c3o2)nn1 [Compound 242, 6-(7-(3-cyano-4-(tetrahydro-2H-pyran-4-yloxy)phenyl)furo[3,2-b]pyridin-2-yl)-N,N-dimethylpyridazine-3-carboxamide hydrochloride]
< 100	< 100	–	COc1cc(C(=O)N2CC3CN(C)CC3C2)ncc1-c1cc2nccc(-c3ccc(N4CC[C@@H](F)C4)c(C#N)c3)c2o1 (stereo partly drawn) [Compound 453, 2-[(3R)-3-fluoropyrrolidin-1-yl]-5-[2-[4-methoxy-6-([5-methyl-octahydropyrrolo[3,4-c]pyrrol-2-yl]carbonyl)pyridin-3-yl]furo[3,2-b]pyridin-7-yl]benzonitrile]
< 100	< 100	–	CN(C)C(=O)c1ccc(-c2cc3nccc(-c4ccc(OC5CCOCC5)c(C#N)c4)c3o2)c(F)c1 [Compound 238, 4-(7-(3-cyano-4-(tetrahydro-2H-pyran-4-yloxy)phenyl)furo[3,2-b]pyridin-2-yl)-3-fluoro-N,N-dimethylbenzamide]
< 100	< 100	–	COc1cc(C(=O)N(C)C)cc(F)c1-c1cc2nccc(-c3ccc(NC4CCOCC4)c(C#N)c3)c2o1 [Compound 255, 4-(7-(3-cyano-4-(tetrahydro-2H-pyran-4-ylamino)phenyl)furo[3,2-b]pyridin-2-yl)-3-fluoro-5-methoxy-N,N-dimethylbenzamide]
1000 to 5000	1000 to 5000	–	N#Cc1cc(-c2ccnc3cc(-c4ccc(C(=O)O)cc4)oc23)ccc1Oc1cccc(F)c1 [Compound 188, 4-{7-[3-Cyano-4-(3-fluoro-phenoxy)-phenyl]-furo[3,2-b]pyridin-2-yl}-benzoic acid]
